Measurements: patent publication US8962637B2, “Bicyclic compounds and their uses as dual c-SRC/JAK inhibitors” (Debiopharm S.A., priority 2010, dated 2015)

How the values were obtained:
[1] = molecular target: c-Src (Homo sapiens (Human), UniProt P12931); test: TR-FRET c-Src kinase assay; type: biochemical; details: ATP 50 μM; for inhibition at 0.1 µM: read-out: c-SRC % inhibition at 100 nM, 100 nM; for inhibition at 1 µM: read-out: c-SRC % inhibition at 1 μM
Experimental: Compounds were screened in the TR-FRET assay for JAK2 and c-Src kinase inhibition. Ultra light poly GT (Perkin Elmer) was used as the substrate for JAK2 and c-Src with the ATP concentration of 10 μM and 50 μM, respectively. […] The dose-response curve fitting was done using GraphPad Prism software.

[2] = molecular target: JAK1 (Homo sapiens (Human), UniProt P23458); test: JAK1 kinase inhibition; type: biochemical
[3] = tested on: Mda-Mb-231 cells; test: Cell viability assay (XTT assay), Mda-Mb-231; type: cell-based; details: Homo sapiens, 72 hrs
How it was run: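 MDA-MB-231 cells seeded and dosed next day in triplicate, incubated 72 h. Medium replaced with XTT working solution for 2-5 h, absorbance read at 465 nm, and EC50 values derived from the readings.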

[4] = tested on: A549 cells; test: Cell viability assay (XTT assay), A549; type: cell-based; details: Homo sapiens, 72 hrs
Experimental: Next day compounds were added to cells and incubated for 72 hrs. Compound treatment was done in triplicates. After 72 hrs cell culture media was aspirated from the wells and XTT working solution was added and plates were incubated for 2-5 hrs. […] EC50 values were calculated using Graphpad Prism. Tumor cell lines used in the examples of the present invention were procured from ATCC. Description of the cell lines is included in the following table: […]

[5] = tested on: A431 cancer cell line; test: Inhibition of cell growth in A431; type: cell-based; details: Homo sapiens, A-431
[6] = tested on: pStat3; test: In-Cell-Western blot assay for pStat3 (ICW) in A431 cells; type: cell-based; details: Homo sapiens, A-431, 2 hrs, read-out: pSTAT3 inhibition
How it was run: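 Serum-starved (overnight) A431 cells treated with compound for 2 hrs, then fixed, permeabilized and probed with phospho-Stat3 antibody plus europium-labelled secondary. Europium signal normalized to Hoechst for cell number; IC50 calculated from normalized values.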

[7] = tested on: A549 tumor cells; test: A549 xenograft model; type: in vivo
Experimental: Sub-cutaneous (SC) injection of 5×10^6 A549 tumor cells on the left flank of 48 female athymic nude mice. Randomization of mice 14 days after tumor cell injection into 6 groups of 8 mice each with a mean tumor volume of 134±5 mm3.
Formulation: 20% HPC, 2% ethanol solution in PBS for the compounds No. 45, 117 and 179.
• Normal saline for Erlotinib® Dosing route: Oral for the compounds No. 45, 117 and 179, and Erlotinib® Dose Volume: 10 mL/Kg body weight Dosing schedule: Once daily for 14 consecutive days (Q1Dx14) Dosage: • Group1. Vehicle control • Group2. Erlotinib®-100 MPK • Group3. Compound No. 45—10 MPK • Group4. Compound No. 45—30 MPK • Group5. Compound No. 45—100 MPK • Group6. Compound No. 117—30 MPK • Group7. Compound No. 117—100 MPK • Group8. Compound No. 179—10 MPK • Group9. […] Plasma collected for drug concentration estimation and whole blood was collected to isolate PBMCs (peripheral blood monocytes) to determine pStat3 inhibition by flow cytometry as PD readout. Tumors were snap frozen in liquid nitrogen and stored at −80° C. to estimate pStat3 by flow cytometry as PD readout EXPT. 2
SC injection of 5×10^6 A549 tumor cells on the left flank of 24 female athymic nude mice. Randomization of mice 14 days after tumor cell injection into 3 groups of 8 mice each with a mean tumor volume of 75±7 mm3.
Formulation: 20% HPC, 2% ethanol solution in PBS for the compound No. 45
• Normal saline for Erlotinib® Dosing route: Oral for compound No. 45 and Erlotinib® Dose Volume: 10 mL/Kg body weight Dosing schedule: Once daily for 14 consecutive days (Q1Dx14) Dosage: • Group1. Vehicle control • Group2. Compound No. 45—150 MPK • Group3. […] Plasma collected for drug concentration estimation and whole blood was collected to isolate PBMCs to determine pStat3 inhibition by flow cytometry as PD readout. Tumors were snap frozen in liquid nitrogen and stored at −80° C. to estimate pStat3 by flow cytometry as PD readout Results: […]

[8] = Volume distribution; details: in vivo
From the text: Table 8 provides some volume distribution values of the compounds of the present invention.

[9] = MTD / tolerance in athymic mice; details: once-daily 14 days treatment in athymic mice

Sequence of JAK1 (P23458 whole entry): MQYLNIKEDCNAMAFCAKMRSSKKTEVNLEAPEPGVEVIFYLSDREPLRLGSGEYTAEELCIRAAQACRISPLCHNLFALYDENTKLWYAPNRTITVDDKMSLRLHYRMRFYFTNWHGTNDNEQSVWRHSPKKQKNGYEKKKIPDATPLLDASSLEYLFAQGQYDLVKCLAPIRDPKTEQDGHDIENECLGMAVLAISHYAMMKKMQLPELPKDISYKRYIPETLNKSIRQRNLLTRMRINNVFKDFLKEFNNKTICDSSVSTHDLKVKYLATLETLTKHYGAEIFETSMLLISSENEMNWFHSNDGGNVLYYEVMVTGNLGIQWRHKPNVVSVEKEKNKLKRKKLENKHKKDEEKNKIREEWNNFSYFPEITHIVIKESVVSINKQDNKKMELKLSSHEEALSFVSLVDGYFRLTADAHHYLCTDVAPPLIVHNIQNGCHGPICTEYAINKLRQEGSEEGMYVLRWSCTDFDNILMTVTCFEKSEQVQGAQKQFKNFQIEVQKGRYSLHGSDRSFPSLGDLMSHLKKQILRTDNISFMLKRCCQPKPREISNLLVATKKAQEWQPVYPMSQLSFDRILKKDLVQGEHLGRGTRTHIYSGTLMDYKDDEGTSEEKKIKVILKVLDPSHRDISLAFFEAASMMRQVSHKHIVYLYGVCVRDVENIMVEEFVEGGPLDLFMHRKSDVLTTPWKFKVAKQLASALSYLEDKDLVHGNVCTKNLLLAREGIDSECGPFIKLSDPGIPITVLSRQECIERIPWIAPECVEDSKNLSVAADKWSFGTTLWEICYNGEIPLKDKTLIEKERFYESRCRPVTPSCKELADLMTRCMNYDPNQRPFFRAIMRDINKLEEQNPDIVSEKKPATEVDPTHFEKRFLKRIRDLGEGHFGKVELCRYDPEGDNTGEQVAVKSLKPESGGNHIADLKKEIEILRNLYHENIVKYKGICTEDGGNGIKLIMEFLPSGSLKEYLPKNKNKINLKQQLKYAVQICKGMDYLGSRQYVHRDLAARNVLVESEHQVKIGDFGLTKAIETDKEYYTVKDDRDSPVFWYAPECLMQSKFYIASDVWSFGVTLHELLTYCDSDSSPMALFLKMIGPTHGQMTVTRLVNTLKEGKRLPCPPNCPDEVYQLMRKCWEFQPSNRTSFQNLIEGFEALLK
Sequence of c-Src (P12931 whole entry, looked up): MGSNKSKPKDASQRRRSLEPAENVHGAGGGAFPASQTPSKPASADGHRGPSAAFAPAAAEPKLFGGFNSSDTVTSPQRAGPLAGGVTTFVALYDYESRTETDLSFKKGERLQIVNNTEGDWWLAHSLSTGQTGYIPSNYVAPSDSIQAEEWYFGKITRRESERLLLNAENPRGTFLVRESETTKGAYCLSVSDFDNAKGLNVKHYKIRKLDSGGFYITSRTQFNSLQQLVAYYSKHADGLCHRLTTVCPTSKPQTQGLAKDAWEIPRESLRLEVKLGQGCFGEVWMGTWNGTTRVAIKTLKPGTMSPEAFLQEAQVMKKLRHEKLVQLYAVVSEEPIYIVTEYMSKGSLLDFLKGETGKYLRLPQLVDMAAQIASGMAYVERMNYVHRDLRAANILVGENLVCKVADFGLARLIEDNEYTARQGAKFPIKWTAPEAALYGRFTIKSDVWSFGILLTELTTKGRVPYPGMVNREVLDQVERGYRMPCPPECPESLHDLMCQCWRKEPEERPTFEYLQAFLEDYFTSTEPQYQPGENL

Compound | IC50 [1] [nM] | IC50 [2] [nM] | EC50 [3] [nM] | EC50 [4] [nM] | EC50 [5] [nM] | IC50 [6] [nM] | TGI ([7]; Efficacy - A549, at 100 MPK) [% at] | inhibition at 0.1 µM [1] [%] | inhibition at 1 µM [1] [%] | further results
Cc1ccc(NC(=O)c2cccc(C(F)(F)F)c2)cc1N1CCc2nc(Nc3ccc(N4CCN(C)CC4)cc3)ncc2C1=O [Compound 45, N-(4-Methyl-3-{2-[4-(4-methyl-piperazin-1-yl)-phenylamino]-5-oxo-7,8-dihydro-5H-pyrido[4,3-d]pyrimidin-6-yl}-phenyl)-3-trifluoromethyl-benzamide] | 10 | 116 | 1830 | 1070 | 1400 | 220 | 64 |  |  | inhibition at 0.1 µM ([2]; read-out: JAK1 % inhibition at 100 nM): 56%; inhibition at 1 µM ([2]; read-out: JAK1 % inhibition at 1 μM): 82%; % TGI (Tumor Growth Inhibition) ([7]; A549 Xenograft model, 10 MPK): 28.90%; % TGI (Tumor Growth Inhibition) ([7]; A549 Xenograft model, 30 MPK): 55.62%; % TGI (Tumor Growth Inhibition) ([7]; A549 Xenograft model, 100 MPK): 63.86%; % TGI (Tumor Growth Inhibition) ([7]; A549 Xenograft model, 150 MPK): 53.74%; TGI ([7]; A549 Xenograft model, 150 MPK): 54; tumor growth inhibition ([7]; A549 xenograft model, 100 MPK (Q1Dx14)): 64%; compound related toxicity ([7]; up to 150 MPK during A549 efficacy study): No major effects of compound related toxicity; Vd [8]: 5.89 L/kg; toxicity effects on major organs [9]: does not cause pronounced toxicity effects on major organs
Cc1ccc(NC(=O)c2cccc(C(F)(F)F)c2)cc1N1CCc2nc(Nc3ccc(C(=O)NC4CC4)nc3)ncc2C1 [Compound 117, 5-{6-[2-Methyl-5-(3-trifluoromethyl-benzoylamino)-phenyl]-5,6,7,8-tetrahydro-pyrido[4,3-d]pyrimidin-2-ylamino}-pyridine-2-carboxylic acid cyclopropylamide] |  | 24 | 660 | 25 | 330 | 340 | 56 | 80 | 96 | 
CNC(=O)c1ccc(Nc2ncc3c(n2)CCN(c2cc(NC(=O)c4cc(C(F)(F)F)ccn4)ccc2Cl)C3)cc1 [Compound 179, 4-Trifluoromethyl-pyridine-2-carboxylic acid {4-chloro-3-[2-(4-methylcarbamoyl-phenylamino)-7,8-dihydro-5H-pyrido[4,3-d]pyrimidin-6-yl]-phenyl}-amide] | 15 | 12 | 900 |  |  | 280 |  | 79 | 93 | TGI ([7]; Efficacy - A549, at 30 MPK): 68% at
